Assay results taken from patent US11278503B2, “Pharmaceutical compositions comprising semifluorinated alkanes for the treatment of contact lense-related conditions” (NOVALIQ GMBH, priority 2017, dated 2022).

Assay: Physical properties of the semifluorinated alkanes stated in the description
Assay type: physicochemical
Settings: for refractive index: at 20° C.; for density: at 25° C.

SMILES	chemical and physiological inertness (in words)	solubility in water (in words)	refractive index	density [g/mL]
CCCCCC(F)(F)C(F)(F)C(F)(F)C(F)(F)F [F4H5, 1-perfluorobutyl-pentane]	chemically and physiologically inert	water-insoluble	1.3204	1.284
CCCCCCCCC(F)(F)C(F)(F)C(F)(F)C(F)(F)C(F)(F)C(F)(F)F [F6H8, 1-perfluorohexyl-octane]	chemically and physiologically inert	water-insoluble	1.3432	1.35
